Measured values: US11130959B2, “Methods and compositions for combinations of mutations associated with herbicide resistance/tolerance in rice” (priority 2016, dated 2021)

Assays:
[1] = system: common weeds in rice (grass weeds such as barnyard grass); test: Weed control in rice crops; format: in vivo
Procedure: FIGS. 5A and 5B are photographs of results of trait tolerance trials; weed control by mesotrione herbicide applied pre-planting was evaluated; the plots were planted with a hybrid of the HPPD tolerant line ML0831266-03093; just before planting, the plot on the right FIG. 5B received an application of mesotrione at 210 gmai/ha; the plot on the left FIG. 5A had no herbicide applied either pre-plant or post-emergence; pictures were taken four weeks after planting showing differences in weed appearance.
While testing the tolerant lines, the parent lines were also tested to serve as controls and as an indication of commercial potential as a red rice/wild weedy rice control strategy.
Rice is tolerant to certain ACCase inhibitor herbicides, for example cyhalofop is registered for use in rice. However other ACCase herbicides kill or severely injure rice to varying degrees. […] The applied rates of both types of herbicides giving the weed control are well within the tolerance level of the respective ACCase and HPPD tolerant lines including the combined lines carrying tolerance to both HPPD and ACCase herbicides.

[2] = system: rice line ML0831266-03093 (HPPDi + HPPDni); test: Mesotrione tolerance trials
Procedure: FIG. 4 is a graphical representation of results of a trait tolerance trial wherein mesotrione was applied at the indicated rates about 34 days after planting.
In particular, a rate response experiment was conducted in which two different rates of mesotrione were applied pre-emergence, plus an additional foliar application was also applied.
Further validation of the trait involved testing the mutant line ML0831266-03093 in the presence of common rice weeds.
The mutant line is planted in rows or alternatively whole plots are planted and rows of the unmutated line (P1003) and other types of rice or whole plots are planted. Mesotrione is applied pre-emergence or alternatively it is applied post-emergence at the three to four leaf stage of the rice plants. Various rates of mesotrione are applied pre-emergence, pre-emergence followed by post-emergent, or post-emergent with a single or sequential application. Post-emergent applications are applied at the 3-4 leaf stage of the rice.

[3] = system: rice line R0146 (unmutated); test: Mesotrione tolerance trials; format: in vivo, Oryza sativa; conditions: low rates (105 gm ai/ha)
[4] = system: rice line PL1214418M2-73009; test: Trial of recovery of HPPD tolerance in the combined line; format: in vivo, Oryza sativa; conditions: 0.5×, 1×, 2×, 4× of 210 gmai/ha and sequential 1× and 2×
Procedure: Two trials were conducted to measure recovery of tolerance to both ACCase and HPPD herbicides in the new line PL1214418M2-73009. Recovery of tolerance in the line combining the two traits will illustrate that the traits are heritable and can be used to produce new varieties and hybrids carrying herbicide resistance. These trials are important as often times it is difficult to recover complex QTLs for quantitative traits or in some cases a traits response is dependent upon the genetic background. In the first trail the lines resistance to mesotrione (HPPD herbicide) was evaluated by planting line PL1214418M2-73009, the HPPD resistant line ML0831266-03093 and wild-type rice line P1003 and R0146 in plots (5 feet×10 feet). Mesotrione was applied at 0.5×, 1×, 2×, and 4× multiples of the labeled application rate (210 gmai/ha). Two additional treatments were included with a 1× and 2× rate followed by a second application 14 days afterward with the same rates.

[5] = system: rice line P1003 (unmutated parent); test: Mesotrione tolerance trials; format: in vivo, Oryza sativa
[6] = system: F2 individuals from cross ML0831266-03093 x ML0831265-01493; test: Herbicide bioassays on F2 individuals (Table 3); format: in vivo, Oryza sativa
Text: In the population sprayed with 105 gm ai/ha a single QTL found on chromosome 2 with strong linkage to SNP marker BG-id2004662 acted in a mostly dominate manner. This marker and QTL identifies the inherent tolerance in line P1003. The marker is useful for breeding and selection of new mesotrione tolerant lines. The discovery of this QTL facilitates commercial development of new rice varieties with a new method for controlling weeds through the use of mesotrione herbicide. The finding of the linked marker BG-id2004662 is a novel finding and selection strategy for breeding and selecting the tolerance to mesotrione and other herbicides derived from line P1003.
Combining the HPPD tolerance with the ACCase tolerance into a single rice line was initiated with the HPPD tolerance mapping project by crossing the HPPD tolerant line ML0831266-03093 to the ACCase tolerant line ML0831265-01493. In mapping the F2 population plants were selected for HPPD tolerance by applying mesotrione first at a low rate (105 gmai/ha) followed by a high rate (630 gmai/ha). In this process molecular markers were also developed allowing future selection of HPPD tolerance by either markers or herbicide tolerance screening or both.
In one example a rate of 105 gm ai/ha is applied followed three weeks later by a second application of 630 gm ai/ha. In another example a rate of 420 gm ai/ha is applied in a single application. Yet another example entails applying the herbicide at a rate of 630 gm ai/ha. Herbicide applications are done at the three to four leaf stage of seedling growth. The ideal situation is to have also planted near or within the F2 population a set of plants from the original mutant mesotrione donor line ML0831266-03093, a row of plants of the wild-type of the mutation line, P1003, and a row of the line involved as the other parent ML0831265-01493. These control lines will allow easy differentiation for inheritance of the tolerance provided by the ML0831266-03093 mutant line through comparison of the response in the F2 plants to these control lines. Only plants that live and are relatively healthy will have inherited and be homozygous for the tolerance level provided by the ML0831266-03093 mutant line.

[7] = system: rice line ML0831265-01493; test: Mesotrione tolerance trials; format: in vivo, Oryza sativa
[8] = system: rice line PL1214418M2-73001 (HPPD mutation only); test: Contribution of single HPPD tolerance genes, field rows sprayed at 4 leaf stage; format: in vivo, Oryza sativa; conditions: 0.5×-4× of 210 gmai/ha, 4 weeks after application
Text: (§1) During the breeding process to develop new lines (PL1214418M2-80048 and PL1214418M2-73009) with resistance/tolerance to HPPD and ACCase herbicides, two other lines were also investigated to determine the contribution of the HPPD tolerance mutation and the HPPD tolerance native gene. The line PL1214418M2-73001 carries ACCase tolerance and only the HPPD tolerance, whereas […] PL1214418M2-73013 carries ACCase tolerance and only the HPPD native tolerance gene. These selections allow the estimation of the tolerance effect of each of the two genes required for tolerance to HPPD herbicides. The tolerance effect of each gene was measured by growing the lines in single rows including the newly developed line PL1214418M2-73009 that carries both the HPPD tolerance from the mutation and the non-induced tolerance, the HPPD tolerant line ML0831266-0309, and the non-induced parent line P1003. The field plots were sprayed at the 4 leaf stage with the HPPD herbicide mesotrione at 0.5×, 1×, 2×, and 4× multiples of the labeled application rate of 210 gmai/ha.

[9] = system: rice line PL1214418M2-73013 (HPPD native tolerance gene only); test: as above; format: in vivo, Oryza sativa; conditions: 0.5×-4× of 210 gmai/ha, 4 weeks after application
Text: as §1

[10] = 105 gai/ha followed by second application of 630 gai/ha
[11] = single application at 105 gai/ha
[12] = single application at 420 gai/ha

SMILES: CS(=O)(=O)c1ccc(C(=O)C2C(=O)CCCC2=O)c([N+](=O)[O-])c1 [mesotrione]
- control of common weeds in rice ([1]; alone, especially pre-plant or at 2× the labeled rate of 210 gmai/ha): Control of common weeds in rice was also achieved
- control of prevalent weed population ([1]; plots with line ML0831266-03093): well controlled
- rate over which even lines with genetic resistance may be injured ([2]; FIG. 4 trial, 4 weeks after application): over 420 gmai/ha
- tolerance of the crop in the presence of common rice weeds ([2]; applied rates): completely tolerant
- survival ([2]; higher rates): survives
- survival ([2]; low rates (105 gm ai/ha)): survive
- survival [3]: killed
- response compared with original trait line ML0831266-03093 [4]: same response
- survival ([5]; higher rates): killed or severally injured
- survival ([5]; low rates (105 gm ai/ha)): survive
- Observed number of Susceptible plants [6, 10]: 67
- Observed number of Tolerant plants [6, 10]: 28
- Observed number of Susceptible plants [6, 11]: 23
- Observed number of Tolerant plants [6, 11]: 64
- Observed number of Susceptible plants [6, 12]: 52
- Observed number of Tolerant plants [6, 12]: 26
- sensitivity ([7]; in vivo): highly sensitive
- survival ([7]; low rates (105 gm ai/ha)): killed
- tolerance level between P1003 and ML0831266-0309 [8]: intermediate tolerance
- tolerance level [9]: tolerance levels similar to the parent line P1003
